According to US20240140957A1, “BRIDGED COMPOUNDS AS KRAS G12D INHIBITOR AND DEGRADER AND THE USE THEREOF” (BeiGene Switzerland GmbH, priority 2021, published 2024):

How the values were obtained:
[1] = target: KRAS G12D:SOS1 (Homo sapiens, UniProt P01116, G12D); experiment: KRAS G12D:SOS1 GDP TR-FRET assay; assay type: binding; conditions: GST-KRAS G12D 37.5 nM, GDP 10 μM, His-SOS1 18 nM
Description: (§1) KRAS:SOS1 GDP TR-FRET Assay
(§2) This assay was used to identify compounds which competitively interact with the binding of KRAS protein to SOS1 in the presence of GDP. […] All protein and reaction solutions were prepared in assay buffer containing DPBS pH7.5, 0.1% BSA, and 0.05% Tween 20. Purified GST-tagged WT KRAS or KRAS G12D protein (37.5 nM final assay concentration) and GDP (Sigma, 10 μM final assay concentration) mixture, a serially diluted compound (top final concentration is 50 μM or 10 uM, 3-fold serially diluted, 10 points) and His-tagged SOS1 protein (18 nM final assay concentration) were added into the assay plates (384 well microplate, black, Corning) sequentially. Plates are incubated at 24° C. for 1 hr. Following the incubation, Mab Anti-GST-Tb cryptate (Cisbio) and […] (Cisbio) were added and further incubated at 24° C. for another 1 hr. The TR-FRET signals (ex337 nm, em665 nm/620 nm) were read on BMG PHERAstar FSX instrument. The inhibition percentage of KRAS protein binding with SOS1 in presence of increasing concentrations of compounds was calculated based on the ratio of fluorescence at 665 nm to that at 620 nm. The IC50 value of each compound was calculated from fitting the data to the four-parameter logistic model by Dotmatics.

[2] = target: WT KRAS:SOS1 (Homo sapiens, UniProt P01116); experiment: KRAS WT:SOS1 GDP TR-FRET assay; assay type: binding; conditions: GST-WT KRAS 37.5 nM, GDP 10 μM, His-SOS1 18 nM
Chain of WT KRAS:SOS1 (P01116 1-188 isoform P01116-2): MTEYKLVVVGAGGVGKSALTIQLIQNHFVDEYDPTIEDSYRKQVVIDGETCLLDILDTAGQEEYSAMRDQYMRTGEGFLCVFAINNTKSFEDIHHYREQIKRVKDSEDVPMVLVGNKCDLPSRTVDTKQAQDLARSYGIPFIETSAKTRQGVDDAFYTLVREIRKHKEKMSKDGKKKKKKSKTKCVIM
Description: as §1, §2

[3] = test system: pERK1/2 (THR202/TYR204) in AsPC-1 cells; experiment: pERK Assay (HTRF) in AsPC-1 cells; assay type: cell-based; conditions: Homo sapiens, ASPC1, 2 h compound treatment
Description: AsPC-1 cell line was used in this study. […] 30000 cells per well were seeded into a 96-well plate and incubated overnight. […] After 2 h compound treatment, cells were lysed, and the pERK1/2 (THR202/TYR204) level in the cell lysates was detected by HTRF kit (Cisbio). In brief, a total of 16 μL of cell lysate from each well of a 96-well plate was transferred to a 384-well white assay plate. Lysate from each well was incubated with 2 μL of Eu3+-cryptate (donor) labeled anti-phospho-ERK1/2 and 2 μL of D2 (acceptor) labeled anti-phospho-ERK1/2 antibodies (Cisbio) overnight in dark at room temperature. When donor and acceptor are in close proximity, excitation of the donor with laser triggers a Fluorescence Resonance Energy Transfer (FRET) towards the acceptor, which in turn fluoresces at 655 nm wavelength. FRET signals were measured using a PHERAstar FSX reader (BMG Labtech).

Chain of KRAS G12D:SOS1 (P01116 1-188 isoform P01116-2 G12D): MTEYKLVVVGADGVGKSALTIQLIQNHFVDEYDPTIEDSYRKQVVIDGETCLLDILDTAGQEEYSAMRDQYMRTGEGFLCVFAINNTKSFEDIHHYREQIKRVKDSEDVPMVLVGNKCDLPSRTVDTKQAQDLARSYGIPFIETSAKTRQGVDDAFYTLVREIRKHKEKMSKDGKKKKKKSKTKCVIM

SMILES	IC50 [1] [nM]	IC50 [2] [nM]	IC50 [3] [nM]
C[C@@H](CN1CCOCC1)Oc1nc(N2CC3CCC(C2)N3)c2cc(Cl)c(-c3ccc(F)c4sc(N)nc34)c(F)c2n1 [Example E29, 4-(4-(3,8-diazabicyclo[3.2.1]octan-3-yl)-6-chloro-8-fluoro-2-(((S)-1-morpholinopropan-2-yl)oxy)quinazolin-7-yl)-7-fluorobenzo[d]thiazol-2-amine]	5.9	453	903
C[C@@H](CN1CCC1)Oc1nc(N2CC3CCC(C2)N3)c2cc(Cl)c(-c3ccc(F)c4sc(N)nc34)c(F)c2n1 [Example E23, 4-(2-(((S)-1-(azetidin-1-yl)propan-2-yl)oxy)-4-(3,8-diazabicyclo[3.2.1]octan-3-yl)-6-chloro-8-fluoroquinazolin-7-yl)-7-fluorobenzo[d]thiazol-2-amine]	3.9	146	5220
CC(CN1CCCCC1)Oc1nc(N2CC3CC(C2)N3)c2cc(Cl)c(-c3ccc(F)c4sc(N)nc34)c(F)c2n1 (stereo not drawn) [Example E6, 4-(4-(3,6-diazabicyclo[3.1.1]heptan-3-yl)-6-chloro-8-fluoro-2-((1-(piperidin-1-yl)propan-2-yl)oxy)quinazolin-7-yl)-7-fluorobenzo[d]thiazol-2-amine]	18	1060	7080
C[C@@H](CN1CCC(F)(F)C1)Oc1nc(N2CC3CCC(C2)N3)c2cc(Cl)c(-c3ccc(F)c4sc(N)nc34)c(F)c2n1 [Example E20, 4-(4-(3,8-diazabicyclo[3.2.1]octan-3-yl)-6-chloro-2-(((S)-1-(3,3-difluoropyrrolidin-1-yl)propan-2-yl)oxy)-8-fluoroquinazolin-7-yl)-7-fluorobenzo[d]thiazol-2-amine]	25	> 10000	7260
CC(CN1CCCCC1)Oc1nc(N2C3CCC2C(N)C3)c2cc(Cl)c(-c3ccc(F)c4sc(N)nc34)c(F)c2n1 (stereo not drawn) [Example E9, 4-(4-(2-amino-7-azabicyclo[2.2.1]heptan-7-yl)-6-chloro-8-fluoro-2-((1-(piperidin-1-yl)propan-2-yl)oxy)quinazolin-7-yl)-7-fluorobenzo[d]thiazol-2-amine]	26	381	7690
Nc1nc2c(-c3c(Cl)cc4c(N5C6CCC5CNC6)nc(OC5CC6CCCCN6C5)nc4c3F)ccc(F)c2s1 (stereo not drawn) [Example E39, 4-(4-(3,8-diazabicyclo[3.2.1]octan-8-yl)-6-chloro-8-fluoro-2-((octahydroindolizin-2-yl)oxy)quinazolin-7-yl)-7-fluorobenzo[d]thiazol-2-amine]	54	8160	> 10000
C[C@@H](CN1CCC(F)CC1)Oc1nc(N2C3CCC2CNC3)c2cc(Cl)c(-c3ccc(F)c4sc(N)nc34)c(F)c2n1 [Example E30, 4-(4-(3,8-diazabicyclo[3.2.1]octan-8-yl)-6-chloro-8-fluoro-2-(((S)-1-(4-fluoropiperidin-1-yl)propan-2-yl)oxy)quinazolin-7-yl)-7-fluorobenzo[d]thiazol-2-amine]	12	173	1810
CC(CN1CCNCC1)Oc1nc(N2CC3CCC(C2)N3)c2cc(Cl)c(-c3ccc(F)c4sc(N)nc34)c(F)c2n1 (stereo not drawn) [Example E13, 4-(4-(3,8-diazabicyclo[3.2.1]octan-3-yl)-6-chloro-8-fluoro-2-((1-(piperazin-1-yl)propan-2-yl)oxy)quinazolin-7-yl)-7-fluorobenzo[d]thiazol-2-amine]	8.3	537	> 10000
C[C@@H](CN1CCS(=O)(=O)CC1)Oc1nc(N2CC3CCC(C2)N3)c2cc(Cl)c(-c3ccc(F)c4sc(N)nc34)c(F)c2n1 [Example E22, 4-((2S)-2-((7-(2-amino-7-fluorobenzo[d]thiazol-4-yl)-4-(3,8-diazabicyclo[3.2.1]octan-3-yl)-6-chloro-8-fluoroquinazolin-2-yl)oxy)propyl)thiomorpholine 1,1-dioxide]	27	> 3330	7700
C[C@@H](CN1CCC(F)(F)CC1)Oc1nc(N2CC3CCC(C2)N3)c2cc(Cl)c(-c3ccc(F)c4sc(N)nc34)c(F)c2n1 [Example E17, 4-(4-(3,8-diazabicyclo[3.2.1]octan-3-yl)-6-chloro-2-(((S)-1-(4,4-difluoropiperidin-1-yl)propan-2-yl)oxy)-8-fluoroquinazolin-7-yl)-7-fluorobenzo[d]thiazol-2-amine]	4.2	785	2880
CC(CN1CCCCC1)Oc1nc(N2CC3COCC(C2)N3)c2cc(Cl)c(-c3ccc(F)c4sc(N)nc34)c(F)c2n1 (stereo not drawn) [Example E21, 4-(4-(3-oxa-7,9-diazabicyclo[3.3.1]nonan-7-yl)-6-chloro-8-fluoro-2-((1-(piperidin-1-yl)propan-2-yl)oxy)quinazolin-7-yl)-7-fluorobenzo[d]thiazol-2-amine]	44	338	> 10000
C[C@@H](CN1CC(F)C1)Oc1nc(N2CC3CCC(C2)N3)c2cc(Cl)c(-c3ccc(F)c4sc(N)nc34)c(F)c2n1 [Example E31, 4-(4-(3,8-diazabicyclo[3.2.1]octan-3-yl)-6-chloro-8-fluoro-2-(((S)-1-(3-fluoroazetidin-1-yl)propan-2-yl)oxy)quinazolin-7-yl)-7-fluorobenzo[d]thiazol-2-amine]	11	1080	1900
C[C@@H](CN1CCC(F)(F)CC1)Oc1nc(N2C3CCC2CNC3)c2cc(Cl)c(-c3ccc(F)c4sc(N)nc34)c(F)c2n1 [Example E19, 4-(4-(3,8-diazabicyclo[3.2.1]octan-8-yl)-6-chloro-2-(((S)-1-(4,4-difluoropiperidin-1-yl)propan-2-yl)oxy)-8-fluoroquinazolin-7-yl)-7-fluorobenzo[d]thiazol-2-amine]	10	566	3410
CC1CCCCN1C[C@H](C)Oc1nc(N2CC3CCC(C2)N3)c2cc(Cl)c(-c3ccc(F)c4sc(N)nc34)c(F)c2n1 (stereo partly drawn) [Example E27, 4-(4-(3,8-diazabicyclo[3.2.1]octan-3-yl)-6-chloro-8-fluoro-2-(((2S)-1-(2-methylpiperidin-1-yl)propan-2-yl)oxy)quinazolin-7-yl)-7-fluorobenzo[d]thiazol-2-amine]	2.9	57	518
C[C@@H](CN1CCC(F)CC1)Oc1nc(N2CC3CCC(C2)N3)c2cc(Cl)c(-c3ccc(F)c4sc(N)nc34)c(F)c2n1 [Example E25]	2.2	88	860
C[C@@H](CN1CCCCC1)Oc1nc(N2C3CCC2CNC3)c2cc(Cl)c(-c3ccc(F)c4sc(N)nc34)c(F)c2n1 [Example E18, 4-(4-(3,8-diazabicyclo[3.2.1]octan-8-yl)-6-chloro-8-fluoro-2-(((S)-1-(piperidin-1-yl)propan-2-yl)oxy)quinazolin-7-yl)-7-fluorobenzo[d]thiazol-2-amine]	2.5	35	528
CN1C[C@H](F)C[C@H]1COc1nc(N2CC3CCC(C2)N3)c2cc(Cl)c(-c3ccc(F)c4sc(N)nc34)c(F)c2n1 [Example E15, 4-(4-(3,8-diazabicyclo[3.2.1]octan-3-yl)-6-chloro-8-fluoro-2-(((2S,4R)-4-fluoro-1-methylpyrrolidin-2-yl)methoxy)quinazolin-7-yl)-7-fluorobenzo[d]thiazol-2-amine]	4.4	83	574
CN1C[C@H](O)C[C@H]1COc1nc(N2CC3CCC(C2)N3)c2cc(Cl)c(-c3ccc(F)c4sc(N)nc34)c(F)c2n1 [Example E28, (3R,5S)-5-(((7-(2-amino-7-fluorobenzo[d]thiazol-4-yl)-4-(3,8-diazabicyclo[3.2.1]octan-3-yl)-6-chloro-8-fluoroquinazolin-2-yl)oxy)methyl)-1-methylpyrrolidin-3-ol]	3	30	8860
C[C@@H](CN1CCCCC1)Oc1nc(N2CC3CC(C2)N3)c2cc(Cl)c(-c3ccc(F)c4sc(N)nc34)c(F)c2n1 [Example E12]	3.5	124	2020
